# Where “and” joins values, the source holds several entries; their conditions need not be identical. Identical values can stand only once.
# Tests used:
# Assay in all cases: ≥ marks a high value that may be exact or a test limit, other limits are often not marked, values filed in µg/mL are converted to µM
# Staphylococcus capitis 1 = system: Staphylococcus capitis 1
# [1] = system: Escherichia coli ATCC 25922
# [2] = system: Staphylococcus aureus Cowan 1
# Bacillus megaterium Bm11 = system: Bacillus megaterium Bm11
# [3] = system: Yersinia pseudotuberculosis YPIII
# [4] = system: Candida albicans ATCC 10231
# [5] = system: Escherichia coli ATCC 25726
# [6] = system: Staphylococcus epidermidis RP62A/1
# [7] = system: Staphylococcus epidermidis RP62A
# [8] = system: Staphylococcus aureus ATCC 25923
# [9] = system: Acinetobacter baumannii NM8
# [10] = system: Candida albicans ATCC 90028
# [11] = system: Stenotrophomonas maltophilia B32/4
# [12] = system: Pseudomonas aeruginosa ATCC 27853
# [13] = system: Klebsiella pneumoniae ATCC 700603
# Escherichia coli K91BK = system: Escherichia coli K91BK
# [14] = system: Bacillus subtilis var. niger ATCC 9372
# [15] = system: Bacillus anthracis Sterne 34F2
# [16] = system: Acinetobacter baumannii NM35
# [17] = system: Saccharomyces cerevisiae IFO 1850
# [18] = system: Bacillus subtilis ATCC 6633
# [19] = system: Escherichia coli ATCC 10536
# [20] = system: Candida albicans ATCC 20032
# [21] = system: Escherichia coli CCARM 1238
# [22] = system: Staphylococcus aureus CCARM 3089
# [23] = system: Staphylococcus aureus CCARM 3114
# [24] = system: Salmonella typhimurium KCTC 1926
# [25] = system: Candida albicans CCARM 14007
# [26] = system: Staphylococcus aureus KCTC 1621
# [27] = system: Bacillus subtilis KCTC 1918
# [28] = system: Escherichia coli KCTC 1682
# [29] = system: Listeria monocytogenes KCTC 3710
# [30] = system: Staphylococcus aureus CCARM 3126
# [31] = system: Staphylococcus aureus CCARM 3090
# [32] = system: Candida albicans ATCC 64550
# [33] = system: Staphylococcus aureus CCARM 3108
# [34] = system: Salmonella typhimurium CCARM 8007
# [35] = system: Salmonella typhimurium CCARM 8013
# [36] = system: Candida albicans CCARM 14001
# [37] = system: Pseudomonas aeruginosa KCTC 1637
# [38] = system: Escherichia coli CCARM 1229
# [39] = system: Salmonella typhimurium CCARM 8009
structure (smiles),measurement,setting,value
CC[C@H](C)[C@H](NC(=O)CNC(=O)[C@H](CO)NC(=O)[C@H](CC(C)C)NC(=O)[C@@H](NC(=O)[C@H](CCCN=C(N)N)NC(=O)CNC(=O)[C@@H](NC(=O)[C@H](CC(C)C)NC(=O)[C@@H]1CCCN1C(=O)[C@H](CC(C)C)NC(=O)[C@H](C)N)[C@@H](C)CC)C(C)C)C(=O)N[C@@H](CC(C)C)C(N)=O [ALPLIGRVLSGIL],MIC,Staphylococcus capitis 1,≥ 40 µM
same,MIC,[1],> 40 µM
same,MIC,[2],≥ 40 µM
same,MIC,Bacillus megaterium Bm11,20 µM
same,MIC,[3],≥ 40 µM
same,MIC,[4],> 40 µM
CC[C@H](C)[C@H](N)C(=O)N[C@@H](CC(C)C)C(=O)NCC(=O)N[C@@H](CCCCN)C(=O)N[C@@H](CC(C)C)C(=O)N[C@@H](CC(C)C)C(=O)N[C@@H](CCCCN)C(=O)N[C@H](C(=O)N[C@@H](C)C(=O)N[C@@H](C)C(=O)NCC(=O)N[C@@H](CC(C)C)C(=O)N[C@@H](CC(C)C)C(=O)N[C@@H](CO)C(=O)N[C@@H](CC(N)=O)C(=O)N[C@@H](CC(C)C)C(N)=O)[C@@H](C)O [ILGKLLKTAAGLLSNL],MIC,[5],≥ 64 µM
same,MIC,[6],4 µM
same,MIC,[7],4 µM
same,MIC,[8],8 µM
same,MIC,[9],≥ 64 µM
same,MIC,[10],≥ 128 µM
same,MIC,[11],≥ 64 µM
same,MIC,[12],64 µM
same,MIC,[13],64 µM
CC(=O)N[C@@H](CCCN=C(N)N)C(=O)N[C@@H](CCCN=C(N)N)C(=O)N[C@@H](CCCN=C(N)N)C(=O)N[C@@H](C)C(=O)N[C@@H](C)C(=O)N[C@@H](Cc1ccccc1)C(=O)N[C@@H](C)C(=O)N[C@@H](C)C(=O)N[C@@H](Cc1c[nH]c2ccccc12)C(=O)N[C@@H](C)C(=O)N[C@@H](C)C(=O)N[C@@H](Cc1ccccc1)C(=O)N[C@@H](C)C(=O)N[C@@H](C)C(=O)N[C@@H](CCCN=C(N)N)C(=O)N[C@@H](CCCN=C(N)N)C(=O)N[C@@H](CCCN=C(N)N)C(N)=O [RRRAAFAAWAAFAARRR],MIC,Escherichia coli K91BK,≥ 100 µM
same,MIC,[14],≥ 50 µM
same,MIC,[15],≥ 100 µM
CC[C@H](C)[C@H](NC(=O)CNC(=O)[C@H](CCCCN)NC(=O)[C@H](CCCCN)NC(=O)[C@H](CC(C)C)NC(=O)[C@H](CO)NC(=O)CNC(=O)[C@H](CC(C)C)NC(=O)CNC(=O)[C@H](C)NC(=O)[C@H](CCCCN)NC(=O)[C@H](Cc1ccccc1)NC(=O)[C@@H](NC(=O)[C@H](CCCCN)NC(=O)[C@H](CCCCN)NC(=O)[C@H](CC(C)C)NC(=O)CN)[C@@H](C)CC)C(=O)N[C@@H](C)C(=O)N[C@@H](C)C(=O)N[C@@H](Cc1cnc[nH]1)C(=O)N[C@H](C(=O)N[C@@H](C)C(=O)N[C@@H](CO)C(N)=O)C(C)C [GLKKIFKAGLGSLKKGIAAHVAS],MIC,[5],10 µM
same,MIC,[16],20 µM
same,MIC,[8],> 250 µM
same,MIC,[9],10 µM
same,MIC,[10],≥ 40 µM
CC(C)C[C@H](NC(=O)[C@H](CCCN=C(N)N)NC(=O)CNC(=O)CNC(=O)[C@@H](NC(=O)[C@H](CCCCN)NC(=O)[C@@H]1CCCN1C(=O)[C@H](Cc1ccccc1)NC(=O)[C@H](Cc1ccc(O)cc1)NC(=O)[C@H](CCC(N)=O)NC(=O)[C@H](CCCCN)NC(=O)CN)C(C)C)C(=O)N[C@@H](CO)C(=O)NCC(=O)N[C@@H](CCCCN)C(=O)N[C@@H](C)C(=O)N1CCC[C@H]1C(=O)N[C@@H](CC(C)C)C(=O)N[C@@H](C)C(=O)N[C@@H](C)C(=O)N[C@@H](CCCCN)C(=O)N[C@H](C(=O)N[C@@H](Cc1cnc[nH]1)C(=O)N[C@@H](CCCN=C(N)N)C(=O)N[C@@H](CCCN=C(N)N)C(=O)N[C@@H](CC(C)C)C(=O)N[C@@H](CCCCN)C(=O)N1CCC[C@H]1C(N)=O)[C@@H](C)O [GKQYFPKVGGRLSGKAPLAAKTHRRLKP],MIC,[17],3.92 µM
same,MIC,[18],3.92 µM
same,MIC,[19],9.14 µM
CC[C@H](C)[C@H](NC(=O)CN)C(=O)NCC(=O)N[C@H](C(=O)N[C@@H](CCCCN)C(=O)N[C@@H](Cc1ccccc1)C(=O)N[C@@H](CC(C)C)C(=O)NCC(=O)NCC(=O)N[C@H](C(=O)N[C@@H](CCCCN)C(=O)N[C@H](C(=O)N[C@@H](C)C(=O)N[C@@H](CC(C)C)C(=O)N[C@@H](CCCCN)C(=O)NCC(=O)N[C@@H](C)C(=O)N[C@@H](CC(C)C)C(=O)N[C@@H](CCCCN)C(=O)N[C@@H](CCC(=O)O)C(=O)N[C@@H](CC(C)C)C(=O)N[C@@H](C)C(=O)N[C@@H](CO)C(=O)N[C@H](C(=O)N[C@@H](Cc1ccc(O)cc1)C(=O)N[C@H](C(=O)N[C@@H](CC(N)=O)C(N)=O)C(C)C)[C@@H](C)O)[C@@H](C)O)C(C)C)[C@@H](C)O [GIGTKFLGGVKTALKGALKELASTYVN],MIC,[1],3.43 µM
same,MIC,[18],27.4 µM
same,MIC,[8],1.72 µM
same,MIC,[20],27.4 µM
NCCCC[C@H](NC(=O)[C@H](Cc1c[nH]c2ccccc12)NC(=O)[C@H](CCCCN)NC(=O)[C@H](Cc1c[nH]c2ccccc12)NC(=O)[C@H](CCCCN)NC(=O)[C@H](Cc1c[nH]c2ccccc12)NC(=O)[C@@H](N)CCCCN)C(=O)N[C@@H](Cc1c[nH]c2ccccc12)C(N)=O [KWKWKWKW],MIC,[21],12.5 µM
same,MIC,[22],12.5 µM
same,MIC,[23],12.5 µM
same,MIC,[24],1.56 µM
same,MIC,[25],≥ 32 µM
same,MIC,[26],6.25 µM and 12.5 µM
same,MIC,[27],6.25 µM and 12.5 µM
same,MIC,[28],6.25 µM and 12.5 µM
same,MIC,[29],3.12 µM
same,MIC,[30],12.5 µM
same,MIC,[31],12.5 µM
same,MIC,[32],≥ 50 µM
same,MIC,[33],12.5 µM
same,MIC,[34],12.5 µM
same,MIC,[35],6.25 µM and 12.5 µM
same,MIC,[36],≥ 32 µM
same,MIC,[37],3.12 µM
same,MIC,[38],6.25 µM and 12.5 µM
same,MIC,[39],6.25 µM and 12.5 µM

# Source: DBAASP
